Measured values: patent US20230220037A1, “NOVEL USE” (GlaxoSmithKline Intellectual Property (No.3) Limited, priority 0001, published 2023)
Entries after “also recorded” stand apart in the source; their conditions may differ.

How the values were obtained:
PACAP-38 = details: treatment with sumatriptan; cited from earlier work
rats [1] = details: inflammatory soup infusion; historical data; cited from earlier work
TRPM3 [2] = format: cell-based, C57BL/6NJ mice and Sprague Dawley rats; details: cultured DRG neurons; agonist 30 min at 37° C.; PS 100 μM; ELISA
TRPM3 [3] = format: cell-based, C57BL/6NJ mice and Sprague Dawley rats; details: cultured TG neurons; agonist 30 min at 37° C.; ELISA
TRPM3 [4] = assay: CGRP release assay, wild type and Trpm3 knock out DRG and TG neurons; format: cell-based, mouse; details: for CGRP release from Trpm3 deficient sensory neurons: Trpm3 knock out DRG and TG neurons; for CGRP release from wild type sensory neurons: wild type DRG and TG neurons
TRPM3 [5] = format: cell-based, mouse; details: for TRPM3 dependence of agonist-induced PACAP release: mouse DRG and TG cells, wild type vs Trpm3 knockout
TRPM3 (SEQ ID NO: 2) = target: T1, TRPM3 (SEQ ID NO: 2) (Homo sapiens, UniProt Q9HCF6); assay: Calcium mobilisation assay, HEK MSR II cells expressing canonical TRPM3; format: cell-based; details: for Relative agonist potency of the isomers of CIM0216 in calcium mobilisation assay: R-isomer vs S-isomer
T1 construct: expressed in transfected cells; host or cells: HEK MSR II cells transduced with BacMam virus (codon optimised cDNA)
Method: (§1) Example 3—Calcium mobilisation assay and cell lines Calcium mobilisation assays were performed in HEK MSR II cells loaded with the calcium indicator dye Fluo4. The cells were induced to express TRPM3 (SEQ ID NO: 2) or mutants thereof by transducing them with Bacmam virus containing the codon optimised cDNA sequence for the required TRPM3 variant at a multiplicity of infection of approximately 40 for 48 hours prior to the experiment. Cells were incubated in the presence of FLUO4-AM and TRPM3 inhibitors for approx 1.5 hrs prior to transfer to a FLIPR where the cells were treated with TRPM3 agonists to induce calcium mobilisation. Fluo4 fluorescence was monitored for 10 min. As a positive control the cells were then treated with the calcium ionophore ionomycin and the fluorescence monitored for a further 3 min.

[6] = target: T2, variant of SEQID NO: 2 having the R1670Q mutation (Homo sapiens, UniProt Q9HCF6, R1695Q); assay: Calcium mobilisation assay, HEK MSR II cells expressing TRPM3 R1670Q variant; format: cell-based
T2 construct: expressed in transfected cells; host or cells: HEK MSR II cells transduced with BacMam virus (codon optimised cDNA)
Method: as §1

rats [7] = assay: Five-day rat dural infusion migraine model, periorbital von Frey testing; format: in vivo; details: for Sensitivity to periorbital von Frey stimulation compared to vehicle treated animals: Day 5 (after 4 infusions)
Method: The five-day rat Dural infusion migraine model is based on repeated inflammatory dural stimulation to mimic the repeated activation of dural afferents believed to occur in patients with recurrent migraine headache. In this model, rats are tested in the periorbital region for mechanical allodynia (a pain response to stimuli which are not normally painful) using von Frey fibres, which are small calibrated fibres which deliver a calibrated amount of force.
The surgery, infusion, and testing followed the modification of the method of Oshinsky & Gomoncharconsiri, 2007, supra. Briefly, rats were habituated and trained for 1-2 weeks and then fitted with a stainless-steel cannula (22GA, Plastics One) under isoflurane anaesthesia. […] Special attention was given not to disturb the dura. A custom flange guide cannula (22GA, Plastics One) was inserted into the hole (cut 0.5 mm below pedestal). The cannula was fixed to the bone with small screws and dental cement. A dummy that extended just past the end of the cannula was inserted to prevent scar tissue from forming, and thus clogging the cannula. Animals were allowed 1-2 weeks of recovery before testing and infusions began.
Periorbital thresholds were monitored during the recovery period to ensure the thresholds returned to pre-surgery baselines. […] Extra animals were included to account for any post-surgery animal that needed to be excluded.
After recovering from surgery, animals were infused supra-durally with treatments according to Table 1 for 5 consecutive days. Under isoflurane, the animal's nose was place in the nose cone of the anaesthesia machine. Using a haemostat, the base of the flange cannula was clasped, and the dummy cannula was removed. A custom cannula injector was inserted into the flange cannula. With a Hamilton syringe and infusion pump at a rate of 1.759 μl/min 15 μl of formulations was delivered supra-durally.
Animals were randomly assigned to a treatment group (A-C) using a software generated randomization scheme. From the first day of sensitization, each animal was tested routinely (every 2-3 days) for changes in periorbital sensitivity by a blinded investigator.
Pre-infusion sensory testing occurred on Day 1 of the testing schedule to provide a point of comparison for subsequent testing. Sensory testing occurred according to the testing schedule established in Table 1, and prior to infusion when applicable. Sensory testing utilized von Frey filaments with reproducible calibrated buckling forces varying from 0.4-10 g utilizing the Chaplan up and down method. Allodynia was tested by perpendicularly touching the periorbital region causing slight buckling of the filament for approximately 5 seconds. Based on the response pattern and the force of the final filament, the periorbital threshold (g) was calculated (Chaplan et al., 1994, Quantitative assessment of tactile allodynia in the rat paw. Journal of neuroscience methods, 53(1), 55-63). The supra-dural infusions were above the dura in the right brain hemisphere; therefore, the right periorbital threshold data only was recorded. A positive response was characterized by several behavioural criteria: stroking the face with a forepaw, head withdrawal from the stimulus, and head shaking.

TRPM3 [8] = target: T3, TRPM3 (Mus musculus, UniProt J9SQF3); parameters: trigeminal neurons from mice; host or cells: trigeminal neurons from mice; details: Vriens et al., Neuron 2011; cited from earlier work
TRPM3 [9] = target: T3, TRPM3; details: Held et al., PNAS 2015; cited from earlier work
[10] = HEK MSR II cells, Bacmam transduction
[11] = supra-dural infusion 5 days, Pregnenolone sulphate 5 mM, CIM0216 215 μM

T2 sequence (Q9HCF6 1-1707 isoform Q9HCF6-2 R1670Q): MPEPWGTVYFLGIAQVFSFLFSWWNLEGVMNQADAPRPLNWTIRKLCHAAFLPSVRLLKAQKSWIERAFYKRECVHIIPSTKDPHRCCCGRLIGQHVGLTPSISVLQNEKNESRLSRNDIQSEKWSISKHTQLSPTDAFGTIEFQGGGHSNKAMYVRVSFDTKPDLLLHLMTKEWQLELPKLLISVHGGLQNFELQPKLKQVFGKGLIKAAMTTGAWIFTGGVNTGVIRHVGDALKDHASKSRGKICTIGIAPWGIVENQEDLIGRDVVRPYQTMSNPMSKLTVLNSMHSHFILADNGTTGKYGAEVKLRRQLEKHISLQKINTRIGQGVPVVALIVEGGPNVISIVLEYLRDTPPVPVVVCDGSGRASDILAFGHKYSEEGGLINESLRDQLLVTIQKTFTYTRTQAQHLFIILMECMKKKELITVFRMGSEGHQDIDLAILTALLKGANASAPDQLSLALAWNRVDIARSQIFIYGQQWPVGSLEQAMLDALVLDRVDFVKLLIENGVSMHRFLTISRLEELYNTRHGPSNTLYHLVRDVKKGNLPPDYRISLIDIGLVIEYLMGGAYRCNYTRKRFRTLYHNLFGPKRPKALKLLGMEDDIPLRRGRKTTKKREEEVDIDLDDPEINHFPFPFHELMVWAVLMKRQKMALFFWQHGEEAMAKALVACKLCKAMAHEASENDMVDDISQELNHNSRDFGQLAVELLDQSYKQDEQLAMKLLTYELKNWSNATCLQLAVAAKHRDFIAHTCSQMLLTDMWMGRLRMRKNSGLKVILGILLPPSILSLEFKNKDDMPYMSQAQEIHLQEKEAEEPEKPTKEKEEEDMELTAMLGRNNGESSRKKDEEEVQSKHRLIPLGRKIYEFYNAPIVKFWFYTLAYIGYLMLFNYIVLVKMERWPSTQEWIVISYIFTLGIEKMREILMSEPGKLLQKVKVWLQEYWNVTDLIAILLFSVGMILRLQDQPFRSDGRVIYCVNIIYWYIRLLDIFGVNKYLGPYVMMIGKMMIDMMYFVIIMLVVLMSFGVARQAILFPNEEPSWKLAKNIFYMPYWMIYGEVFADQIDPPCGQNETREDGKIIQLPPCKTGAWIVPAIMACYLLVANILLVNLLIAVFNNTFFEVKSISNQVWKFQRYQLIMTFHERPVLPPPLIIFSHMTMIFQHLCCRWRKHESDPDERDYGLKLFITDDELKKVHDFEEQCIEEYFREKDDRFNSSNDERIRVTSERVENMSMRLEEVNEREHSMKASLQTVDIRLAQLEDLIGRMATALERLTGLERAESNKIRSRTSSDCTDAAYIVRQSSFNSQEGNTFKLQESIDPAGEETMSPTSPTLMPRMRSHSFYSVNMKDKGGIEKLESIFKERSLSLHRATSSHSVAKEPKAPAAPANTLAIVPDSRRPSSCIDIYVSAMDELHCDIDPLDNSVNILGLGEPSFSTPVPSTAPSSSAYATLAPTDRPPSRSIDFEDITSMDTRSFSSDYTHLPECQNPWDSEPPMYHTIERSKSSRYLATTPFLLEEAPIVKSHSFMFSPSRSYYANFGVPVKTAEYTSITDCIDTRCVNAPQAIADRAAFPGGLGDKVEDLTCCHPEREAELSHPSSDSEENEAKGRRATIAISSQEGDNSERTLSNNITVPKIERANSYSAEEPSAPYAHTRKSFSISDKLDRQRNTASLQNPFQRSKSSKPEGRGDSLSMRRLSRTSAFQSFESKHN
T1 sequence (Q9HCF6 1-1707 isoform Q9HCF6-2): as the sequence (Q9HCF6 1-1707 isoform Q9HCF6-2 R1670Q) above, with Q1670R counted along it
T3 sequence (J9SQF3 whole entry): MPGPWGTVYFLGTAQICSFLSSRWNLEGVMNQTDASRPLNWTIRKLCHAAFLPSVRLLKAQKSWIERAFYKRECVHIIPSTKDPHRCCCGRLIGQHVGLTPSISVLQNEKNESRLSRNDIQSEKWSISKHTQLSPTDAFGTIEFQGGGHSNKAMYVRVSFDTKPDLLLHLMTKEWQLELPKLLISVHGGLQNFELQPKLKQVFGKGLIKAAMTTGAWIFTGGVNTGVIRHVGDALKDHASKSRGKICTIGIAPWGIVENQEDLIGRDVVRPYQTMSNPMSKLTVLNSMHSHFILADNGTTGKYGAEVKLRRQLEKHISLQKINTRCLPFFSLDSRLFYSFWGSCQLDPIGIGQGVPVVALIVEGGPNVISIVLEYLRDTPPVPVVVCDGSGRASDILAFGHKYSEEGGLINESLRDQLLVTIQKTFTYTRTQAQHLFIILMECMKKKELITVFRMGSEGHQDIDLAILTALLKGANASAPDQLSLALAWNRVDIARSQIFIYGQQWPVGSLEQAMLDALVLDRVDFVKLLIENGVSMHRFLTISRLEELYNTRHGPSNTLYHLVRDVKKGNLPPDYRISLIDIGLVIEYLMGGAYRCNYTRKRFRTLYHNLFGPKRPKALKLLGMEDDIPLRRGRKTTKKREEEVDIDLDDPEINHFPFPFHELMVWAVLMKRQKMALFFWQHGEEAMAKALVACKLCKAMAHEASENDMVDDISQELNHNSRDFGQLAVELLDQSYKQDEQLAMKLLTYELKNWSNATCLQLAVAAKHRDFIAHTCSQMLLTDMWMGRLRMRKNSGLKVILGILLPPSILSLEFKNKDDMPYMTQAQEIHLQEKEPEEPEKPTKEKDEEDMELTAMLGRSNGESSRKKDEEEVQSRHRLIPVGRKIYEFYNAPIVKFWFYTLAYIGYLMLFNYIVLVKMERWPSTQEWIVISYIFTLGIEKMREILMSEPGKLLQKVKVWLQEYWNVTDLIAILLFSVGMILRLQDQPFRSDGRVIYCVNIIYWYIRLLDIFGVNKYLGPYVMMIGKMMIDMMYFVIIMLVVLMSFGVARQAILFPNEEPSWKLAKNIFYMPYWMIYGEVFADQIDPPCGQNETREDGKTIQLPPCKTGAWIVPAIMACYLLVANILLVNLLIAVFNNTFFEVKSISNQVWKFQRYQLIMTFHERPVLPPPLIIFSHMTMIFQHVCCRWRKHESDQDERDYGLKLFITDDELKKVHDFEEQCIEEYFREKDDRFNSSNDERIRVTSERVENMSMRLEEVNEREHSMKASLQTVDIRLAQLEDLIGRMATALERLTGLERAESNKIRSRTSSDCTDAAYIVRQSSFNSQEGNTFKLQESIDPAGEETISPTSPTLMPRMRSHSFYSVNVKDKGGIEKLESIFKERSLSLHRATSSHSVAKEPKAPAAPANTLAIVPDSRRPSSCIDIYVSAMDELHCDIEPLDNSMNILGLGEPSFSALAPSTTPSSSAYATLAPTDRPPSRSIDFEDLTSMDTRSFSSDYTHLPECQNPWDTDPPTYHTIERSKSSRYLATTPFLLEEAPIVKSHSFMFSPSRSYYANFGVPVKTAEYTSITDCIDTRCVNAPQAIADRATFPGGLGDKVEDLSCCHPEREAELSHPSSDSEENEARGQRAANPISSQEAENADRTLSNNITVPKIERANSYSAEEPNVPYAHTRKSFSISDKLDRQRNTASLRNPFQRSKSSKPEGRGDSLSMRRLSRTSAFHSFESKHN

Molecule: CNS(=O)(=O)Cc1ccc2[nH]cc(CCN(C)C)c2c1 [sumatriptan]
- PACAP-38 levels (PACAP-38): decreased PACAP-38 levels
- Mechanical nociception sensitivity (rats [1]): alleviated

Molecule: pregnenolone sulfate
- CGRP release from DRG neurons induced by TRPM3 agonist (TRPM3 [2]): increased release of CGRP; also recorded: induce release of CGRP
- CGRP release from TG neurons induced by TRPM3 agonist (TRPM3 [3]): increased release of CGRP; also recorded: demonstrated to be concentration dependent; also recorded: stimulate release of CGRP
- CGRP release from Trpm3 deficient sensory neurons (TRPM3 [4]): absent
- CGRP release from Trpm3 deficient sensory neurons (TRPM3 [4]; listed as PS): lacking
- CGRP release from wild type sensory neurons (TRPM3 [4]): dose-dependent release of CGRP
- TRPM3 dependence of agonist-induced PACAP release (TRPM3 [5]): dependent on TRPM3
- Increase in FLUO4 fluorescence, canonical TRPM3 (TRPM3 (SEQ ID NO: 2); [10]): induced concentration-dependent increases in FLUO4 fluorescence
- Increase in FLUO4 fluorescence, R1670Q variant [6, 10]: induced concentration-dependent increases in FLUO4 fluorescence
- Potency at the R1670Q variant relative to canonical TRPM3 ([6]; greater at R1670Q, equal multiplicities of infection): 1.8 fold
- Maximal fold change in fluorescence at R1670Q variant relative to canonical ([6]; larger at R1670Q, equal multiplicities of infection): 26%
- Sensitivity to periorbital von Frey stimulation compared to vehicle treated animals (rats [7]): effective in increasing sensitivity to periorbital von Frey (VF) stimulation as early as Day 5
- Mechanical allodynia in the periorbital region (von Frey thresholds) (rats [7]; [11]): induce mechanical allodynia in the periorbital region of rats; also recorded: trigger mechanical allodynia in the periorbital region
- Inward current in trigeminal neurons (TRPM3 [8]): induced an inward current

Molecule: Cc1cc(NC(=O)[C@@H](C)N2CCCc3ccccc32)no1 (single isomer, unassigned) [R-isomer]
- Relative agonist potency of the isomers of CIM0216 in calcium mobilisation assay (TRPM3 (SEQ ID NO: 2)): more potent agonist compared to the S-isomer
- Relative agonist potency of the isomers of CIM0216 in calcium mobilisation assay (TRPM3 (SEQ ID NO: 2); listed as (R)-2-(3,4-dihydroquinolin-1(2H)-yl)-N-(5-methylisoxazol-3-yl)propenamide): more potent agonist than the (S)-isomer

Molecule: Cc1cc(NC(=O)C(c2ccccc2)N2CCCc3ccccc32)no1 (racemic) [CIM0216, 2-(3,4-dihydroquinolin-1(2H)-yl)-N-(5-methylisoxazol-3-yl)-2-phenylacetamide]
- CGRP release from DRG neurons induced by TRPM3 agonist (TRPM3 [2]): induced a concentration dependent release of CGRP; also recorded: induce release of CGRP
- CGRP release from TG neurons induced by TRPM3 agonist (TRPM3 [3]): induced a concentration dependent release of CGRP; also recorded: stimulate release of CGRP
- CGRP release from Trpm3 deficient sensory neurons (TRPM3 [4]): absent; also recorded: lacking
- CGRP release from wild type sensory neurons (TRPM3 [4]): dose-dependent release of CGRP
- TRPM3 dependence of agonist-induced PACAP release (TRPM3 [5]): dependent on TRPM3
- Sensitivity to periorbital von Frey stimulation compared to vehicle treated animals (rats [7]): effective in increasing sensitivity to periorbital von Frey (VF) stimulation as early as Day 5
- Mechanical allodynia in the periorbital region (von Frey thresholds) (rats [7]; [11]): induce mechanical allodynia in the periorbital region of rats; also recorded: trigger mechanical allodynia in the periorbital region
- Overt adverse effects / body weight (rats [7]; [11]): do not cause overt adverse effects
- CGRP release from isolated mouse hind paw skin (TRPM3 [9]): induced to release CGRP

Molecule: COc1cc(CNC(=O)CCCC/C=C/C(C)C)ccc1O [capsaicin]
- CGRP release from Trpm3 deficient sensory neurons (TRPM3 [4]): could be induced by capsaicin
- CGRP release from Trpm3 deficient sensory neurons (TRPM3 [4]; listed as Capsaicin): evoked CGRP release
- PACAP release from Trpm3 knockout cells (TRPM3 [5]; Trpm3 knockout mouse DRG and TG cells): still responsive
